Source: patent publication US20160039880A1 (priority 2012, published 2016)
In brackets after ≈: the same amount, converted by molar mass. Read-outs that look alike come from different tables or passages of the source.

How the values were obtained:
[1] = target: T1, Human recombinant cyclophilin A (Cyp A) (Homo sapiens, UniProt P62937);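 further: cis to trans isomerization of SUC-AAPF-pNA by 2 nM enzyme, read as absorbance at 330 nm over 300 s at 10 °C, catalytic rate corrected for uncatalyzed background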
T1 sequence (P62937 whole entry): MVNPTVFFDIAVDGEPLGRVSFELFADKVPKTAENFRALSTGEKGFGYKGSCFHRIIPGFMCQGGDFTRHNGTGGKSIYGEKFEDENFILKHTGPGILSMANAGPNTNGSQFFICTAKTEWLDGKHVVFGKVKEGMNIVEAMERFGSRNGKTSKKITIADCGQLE

[2] = target: T1, Human recombinant cyclophilin A (Cyp A); experiment: Protease-free PPIase assay;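 further: cis to trans isomerization of SUC-AAPF-pNA by 2 nM enzyme, read as absorbance at 330 nm over 300 s at 10 °C, catalytic rate corrected for uncatalyzed background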
[3] = Water Solubility Assay (measured in pH 7.8 buffer); format: physicochemical; conditions: kinetic from dmso stock;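 further: precipitation onset detected as rise in absorbance at 650 nm across increasing concentrations, after shaking for 18 h, blank wells receiving DMSO only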
[4] = 35 mM HEPES buffer pH 7.8, 25 °C, aqueous buffer, pH 7.8 buffer, read-out: Water Solubility Assay

| Compound | Ki [1] | Ki [2] | solubility at 18 h ([3]; 25 °C, pH 7.8, aqueous buffer) | solubility at 18 h [3, 4] |
| --- | --- | --- | --- | --- |
| CC[C@H]1NC(=O)[C@@H]([C@H](O)[C@H](C)CCN2CCN(C)CC2)N(C)C(=O)[C@@H](C(C)C)N(C)C(=O)[C@@H](CC(C)C)N(C)C(=O)[C@@H](CC(C)C)N(C)C(=O)[C@H](C)NC(=O)[C@@H](C)NC(=O)[C@@H](CC(C)C)N(C)C(=O)[C@@H](C(C)C)NC(=O)[C@H](CC(C)C)N(C)C(=O)[C@@H](C)N(C)C1=O [Compound L, [(3R,4R,5S)-4-hydroxy-3-methyl-5-(methylamino)-1-(4-methylpiperazino)-hexanoic acid]^1[(R)-Me-Sar]^3 cyclosporin A] | 7.3 nM |  |  |  |
| CC(C)CC1C(=O)NC(C(C)C)C(=O)N(C)C(CC(C)C)C(=O)NC(C)C(=O)NC(C)C(=O)N(C)C(CC(C)C)C(=O)N(C)C(CC(C)C)C(=O)N(C)C(C(C)C)C(=O)N(C)C(C(O)C(C)CCN2CCOCC2)C(=O)NC(C(C)C)C(=O)N(C)CC(=O)N1C [Compound AN, [(3R,4R,5S)-4-(hydroxy-3-methyl-5-(methylamino)-1-N-morpholino-hexanoic acid]^1 cyclosporin D] | 15 nM |  |  |  |
| CC[C@H]1NC(=O)[C@@H]([C@H](O)[C@H](C)CCN2CCSCC2)N(C)C(=O)[C@@H](C(C)C)N(C)C(=O)[C@@H](CC(C)C)N(C)C(=O)[C@@H](CC(C)C)N(C)C(=O)[C@H](C)NC(=O)[C@@H](C)NC(=O)[C@@H](CC(C)C)N(C)C(=O)[C@@H](C(C)C)NC(=O)[C@H](CC(C)C)N(C)C(=O)[C@@H](C)N(C)C1=O [Compound J, [(3R,4R,5S)-4-Hydroxy-3-methyl-5-(methylamino)-1-(thiomorpholino)-hexanoic acid]^1[(R)-Me-Sar]^3 cyclosporin A] | 3.7 nM |  |  |  |
| [(3R,4R,5S)-4-Hydroxy-3-methyl-5-(methylamino)-1-2-(N,N-diethylamino)ethoxy-hexanoic acid]^1[(S)-thio-isopropyl-Sar]^3 cyclosporin A [Compound AL] | 27 nM |  |  |  |
| CC[C@H]1NC(=O)[C@@H]([C@H](O)[C@H](C)CCN(C)c2ccccc2)N(C)C(=O)[C@@H](C(C)C)N(C)C(=O)[C@@H](CC(C)C)N(C)C(=O)[C@@H](CC(C)C)N(C)C(=O)[C@H](C)NC(=O)[C@@H](C)NC(=O)[C@@H](CC(C)C)N(C)C(=O)[C@@H](C(C)C)NC(=O)[C@H](CC(C)C)N(C)C(=O)[C@@H](C)N(C)C1=O [Compound DC, [(3R,4R,5S)-4-Hydroxy-3-methyl-5-(methylamino)-1-(methyl-phenyl-amino)-hexanoic acid]^1[(R)-methyl-Sar]^3 cyclosporin A] |  | 6 nM | 10 to 25 µM (≈ 13 to 32.4 µg/mL) |  |
| CC[C@H]1NC(=O)[C@@H]([C@H](O)[C@H](C)CCN2CCn3cnnc3C2)N(C)C(=O)[C@@H](C(C)C)N(C)C(=O)[C@@H](CC(C)C)N(C)C(=O)[C@@H](CC(C)C)N(C)C(=O)[C@H](C)NC(=O)[C@@H](C)NC(=O)C(CC(C)C)N(C)C(=O)[C@@H](C(C)C)NC(=O)[C@H](CC(C)C)N(C)C(=O)[C@@H](C)N(C)C1=O (stereo partly drawn) [Compound DU, [(3R,4R,5S)-1-(5,6-Dihydro-8H-[1,2,4]triazolo[4,3-a]pyrazin-7-yl)-4-Hydroxy-3-methyl-5-(methylamino)-hexanoic acid]^1[(R)-methyl-Sar]^3 cyclosporin A] |  | 9.2 nM |  | > 100 µM |
| CC[C@H]1NC(=O)[C@@H]([C@H](O)[C@H](C)CCN2CCOC[C@H]2C)N(C)C(=O)[C@@H](C(C)C)N(C)C(=O)[C@@H](CC(C)C)N(C)C(=O)[C@@H](CC(C)C)N(C)C(=O)[C@H](C)NC(=O)[C@@H](C)NC(=O)C(CC(C)C)N(C)C(=O)[C@@H](C(C)C)NC(=O)[C@H](CC(C)C)N(C)C(=O)[C@@H](C)N(C)C1=O (stereo partly drawn) [Compound DT, [(3R,4R,5S)-4-Hydroxy-3-methyl-5-methylamino-((R)-3-methyl-morpholin-4-yl)-hexanoic acid]^1[(R)-methyl-Sar]^3 cyclosporin A] |  | 4.7 nM | > 100 µM |  |
| CC[C@H]1NC(=O)[C@@H]([C@H](O)[C@H](C)CCN(C)Cc2cnccn2)N(C)C(=O)[C@@H](C(C)C)N(C)C(=O)[C@@H](CC(C)C)N(C)C(=O)[C@@H](CC(C)C)N(C)C(=O)[C@H](C)NC(=O)[C@@H](C)NC(=O)[C@@H](CC(C)C)N(C)C(=O)[C@@H](C(C)C)NC(=O)[C@H](CC(C)C)N(C)C(=O)[C@@H](C)N(C)C1=O [Compound DH, [(3R,4R,5S)-4-Hydroxy-3-methyl-5-(methylamino)-1-({pyrazin-2-ylmethyl}-methylamino)-hexanoic acid]^1[(R)-methyl-Sar]^3 cyclosporin A] |  | 9.1 nM |  | > 100 µM |
| CC[C@H]1NC(=O)[C@@H]([C@H](O)[C@H](C)CCN2CCOC(c3ccccc3)C2)N(C)C(=O)[C@@H](C(C)C)N(C)C(=O)[C@@H](CC(C)C)N(C)C(=O)[C@@H](CC(C)C)N(C)C(=O)[C@H](C)NC(=O)[C@@H](C)NC(=O)C(CC(C)C)N(C)C(=O)[C@@H](C(C)C)NC(=O)[C@H](CC(C)C)N(C)C(=O)[C@@H](C)N(C)C1=O (stereo partly drawn) [Compound DZ, [(3R,4R,5S)-4-Hydroxy-3-methyl-5-(methylamino)-1-(2-phenyl-morpholin-4-yl)-hexanoic acid]^1[(R)-methyl-Sar]^3 cyclosporin A] |  | 6 nM |  | 25 to 50 µM (≈ 33.8 to 67.6 µg/mL) |

More lines, now with the values ahead:

| Ki [1] | Ki [2] | solubility at 18 h ([3]; 25 °C, pH 7.8, aqueous buffer) | solubility at 18 h [3, 4] | Compound |
| --- | --- | --- | --- | --- |
| 46 nM |  |  |  | CC[C@H]1NC(=O)[C@@H]([C@H](O)[C@H](C)CCN2CCN(C)CC2)N(C)C(=O)[C@@H](C(C)C)N(C)C(=O)[C@@H](CC(C)C)N(C)C(=O)[C@@H](CC(C)C)N(C)C(=O)[C@H](C)NC(=O)[C@@H](C)NC(=O)[C@@H](CC(C)C)N(C)C(=O)[C@@H](C(C)C)NC(=O)[C@H](CC(C)C)N(C)C(=O)CN(C)C1=O [Compound LL] |
| 6.1 nM |  |  |  | CC[C@H]1NC(=O)[C@@H]([C@H](O)[C@H](C)CCN2CCNC(=O)C2)N(C)C(=O)[C@@H](C(C)C)N(C)C(=O)[C@@H](CC(C)C)N(C)C(=O)[C@@H](CC(C)C)N(C)C(=O)[C@H](C)NC(=O)[C@@H](C)NC(=O)[C@@H](CC(C)C)N(C)C(=O)[C@@H](C(C)C)NC(=O)[C@H](CC(C)C)N(C)C(=O)[C@@H](C)N(C)C1=O [Compound N, [(3R,4R,5S)-4-hydroxy-3-methyl-5-(methylamino)-1-(N-3-piperazinone)-hexanoic acid]^1[(R)-Me-Sar]^3 cyclosporin A] |
| 3.2 nM |  |  |  | CC[C@H]1NC(=O)[C@@H]([C@H](O)[C@H](C)CCN2CCS(=O)(=O)CC2)N(C)C(=O)[C@@H](C(C)C)N(C)C(=O)[C@@H](CC(C)C)N(C)C(=O)[C@@H](CC(C)C)N(C)C(=O)[C@H](C)NC(=O)[C@@H](C)NC(=O)[C@@H](CC(C)C)N(C)C(=O)[C@@H](C(C)C)NC(=O)[C@H](CC(C)C)N(C)C(=O)[C@@H](C)N(C)C1=O [Compound P, [(3R,4R,5S)-4-Hydroxy-3-methyl-5-(methylamino)-1-(1,1-dioxo-thiomorpholino)-hexanoic acid]^1[(R)-Me-Sar]^3 cyclosporin A] |
|  | 4.5 nM | > 100 µM |  | CC[C@H]1NC(=O)[C@@H]([C@H](O)[C@H](C)CCN2CCOCC2)N(C)C(=O)[C@@H](C(C)C)N(C)C(=O)[C@@H](CC(C)C)N(C)C(=O)[C@@H](CC(C)C)N(C)C(=O)[C@H](C)NC(=O)[C@@H](C)NC(=O)[C@@H](CC(C)C)N(C)C(=O)[C@@H](C(C)C)NC(=O)[C@H](CC(C)C)N(C)C(=O)[C@@H](CO)N(C)C1=O [Compound V, [(3R,4R,5S)-4-Hydroxy-3-methyl-5-(methylamino)-1-N-morpholino-hexanoic acid]^1[(R)-hydroxymethyl-Sar]^3 cyclosporin A] |
